For assay [1], the system named is wild-type Salmonella (ASD200) live cells. As to the kind of experiment: Live-cell growth assay, concentration-response (IC50/IC90) of the top 8 purchased compounds. The class given is cell-based, Salmonella enterica serovar Typhimurium. The note with it: for IC50: read-out: IC50 with live cells, value (95% CI), concentration that inhibits growth to 50%; for IC90: read-out: IC90 with live cells, value (95% CI), concentration that inhibits growth to 90%.

The next assay has as its target recombinant FraB (Salmonella enterica subsp. enterica serovar Typhimurium, UniProt Q8ZLD0). It counts as biochemical. The note with it: for IC50: read-out: IC50 with recombinant FraB (mean ± SE); for Ki: read-out: Ki′ with FraB (mean ± SD).
Assay [2] deals with fraB mutants of Salmonella. The arrangement: method as in PMID 27258673. The following applies: F-Asn made with the small-scale synthesis route; cited from earlier work.
Assay [3] deals with fraB mutants of Salmonella. As to the kind of experiment: Growth inhibition (intoxication) of fraB mutants by F-Asn. The class given is cell-based. The following applies: new gram-scale preparations of F-Asn.
[4] abbreviates: M9 minimal medium, 5 mM glucose, 1 mM F-Asn, 17-h time point, 95% CI in brackets.

SMILES strings stand for the structures. Where a name gives a salt, the structure may show the parent alone. Read-outs that look alike come from different tables or passages of the source.

Chain of recombinant FraB (Q8ZLD0 1-325): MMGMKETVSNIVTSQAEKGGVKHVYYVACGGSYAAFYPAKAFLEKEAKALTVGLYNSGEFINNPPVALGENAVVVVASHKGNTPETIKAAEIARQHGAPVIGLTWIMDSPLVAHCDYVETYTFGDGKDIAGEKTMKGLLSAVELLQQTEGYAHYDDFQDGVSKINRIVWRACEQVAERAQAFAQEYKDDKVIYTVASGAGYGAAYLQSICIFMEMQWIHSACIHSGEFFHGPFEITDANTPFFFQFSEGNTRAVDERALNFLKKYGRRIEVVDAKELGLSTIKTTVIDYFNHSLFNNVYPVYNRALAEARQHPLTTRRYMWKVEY

Take `CCOc1ccc(N2C(=O)NC(=O)/C(=C/c3cc(Cl)c(O)c(OC)c3)C2=O)cc1` [611:D03]: in assay [1] (17 h), the IC50 is 100 µM and the IC90 was determined as 240 µM.

As usually defined, the Ki is the dissociation constant of the complex between target and ligand, obtained from inhibition or displacement. For `c1ccc([B-]2(c3ccccc3)[NH2+]CCO2)cc1` [3403:P13, 2,2-diphenyl-1,3,2-oxaazaborolidine internal salt], in assay [1] (setting [4]), the IC50 was determined as 89 µM and the IC90 came out at 184 µM. At recombinant FraB, the “mode of inhibition of FraB” value stood at 27 ± 6 uncompetitive, the IC50 stood at 35 ± 0.9 µM and the Ki was found to be 27 ± 6 µM.

As for `COc1ccc2[nH]c(SC)nc2c1` [1582:D17], in assay [1] (setting [4]), the IC50 turned out to be 143 µM and the IC90 came out at 318 µM. The IC50 on recombinant FraB is more than 1000 µM.

Take `NC(=O)C[C@H](NCC(=O)[C@@H](O)[C@H](O)[C@H](O)CO)C(=O)O` [F-Asn, fructose-asparagine]: the IC50 was approximately 20 µM in assay [2] and approximately 30 µM in assay [3].

For the molecule `C/C(=N\O)C(=O)c1ccc(Cl)cc1` [1789:D13], in assay [1] (setting [4]), the IC50 was determined as 183 µM and the IC90 turned out to be 348 µM. In addition, the IC50 at recombinant FraB is more than 1000 µM.

Take `O=c1c(=NO)c(=O)c2ccccc12` [1669:M19, triketoindan-2-oxime]: in assay [1] (setting [4]), the IC50 turned out to be 109 µM and the IC90 was 297 µM. For the same molecule, at recombinant FraB, the “mode of inhibition of FraB” value is listed as 26 ± 4; uncompetitive, the IC50 stood at 133 ± 0.8 µM and the Ki is 26 ± 4 µM.

Turning to `Nc1cc(C(=O)O)ccc1Nc1ccccc1` [1609:K19, 3-amino-4-(phenylamino)benzoic acid], in assay [1] (setting [4]), the IC50 turned out to be 155 µM and the IC90 worked out at 411 µM. Also, at recombinant FraB, the “mode of inhibition of FraB” value is reported as 116 ± 27; uncompetitive, the IC50 amounted to 114 ± 3.8 µM and the Ki was 116 ± 27 µM.

In the case of `O=C(O)/C=C/Sc1ccccc1` [1737:K20], in assay [1] (setting [4]), the IC50 was determined as 121 µM and the IC90 worked out at 503 µM. Besides, at recombinant FraB, the IC50 was more than 1000 µM.

Source of the values: PMC10100877, “Identification of Small-Molecule Inhibitors of the Salmonella FraB Deglycase Using a Live-Cell Assay” (Microbiology Spectrum, 2023).
